Assay results: EP2118065B1, “Substituted 1H-benz[de]isoquinoline-1,3-diones” (priority 2007, dated 2008)

How the values were obtained:
[1] = system: HL-60 cells; test: Annexin V-FITC/PI flow cytometric analysis of apoptosis; assay type: cell-based, human; conditions: 24 h
Experimental: Induction of apoptosis in vitro by Compound 3b and 3f was further determined in HL-60 cells by flow cytometric assay using an Annexin V-FITC Apoptosis Detection Kit (BD Biosciences Pharmingen, San Diego, USA). Camptothecin was included in the study for comparison. Exponentially growing HL-60 cells in complete RPMI-1640 media (100 µl of 5×10^6) were plated in six well plates. 10 µl of each Compound in DMSO (5 and 10 µM concentrations) was added to the wells followed by the addition of required media (total volume 1ml). Plates were incubated at 37°C for 24 h. The cells were centrifuged at room temperature at 1500 rpm for 5 min. The pellet was washed twice with cold PBS and was re-suspended in the binding buffer (1X, 100µl) provided in the Kit. The cells were stained with Annexin V-FITC (5 µl) and Propidium Iodide [PI] (5µl) and incubated for 15 min in the dark at 25°C. Next 400µl of binding buffer was added to each tube and analyzed on a FACScan flow cytometer (Becton Dickinson, Mountainview, CA) using Cell Quest software. Cells stained with both Annexin-V-FITC and PI, containing DMSO as vehicle was used as stained control. Cells that were annexin^+ /Pr [Lower right quadrant (LR)] and annexin^+/PI^+ [Upper right quadrant (UR)] were considered as early apoptotic and late apoptotic respectively.

[2] = system: S-180; test: In vivo tumor growth inhibition study; parameters: species or system mice
Source text: Compound 3f was selected for tumor growth inhibition study. 18 mice each were taken for treated and control groups and inoculated with 1 x 10^6 S-180 cells. After sacrificing mice from the respective groups sequentially on days 9, 14 and 19 following drug treatment on day 1-7 at doses indicated, the ascites fluid from peritoneal cavities of animals were quantitatively transferred and the peritoneal cavities were washed with measured volume of physiological saline. The total number of tumor cells were counted and ascites fluid volume were measured. Averages ( x ± S.E.M.) were made of these two parameters and the percentage inhibitions [(1 - T/C) ×100] were calculated for each dose.

Question: What does the source list for `O=C1c2cccc3c([N+](=O)[O-])ccc(c23)C(=O)N1CCCCl` [Compound 3f, 6-Nitro-2-[3-(Chloropropyl)]-1H-benz[de]isoquinoline-1,3-dione]?
Answer: early apoptotic cells (Annexin V^+/PI^-), LR ([1]; 5 µM): 16.4%; late apoptotic cells (Annexin V^+/PI^+), UR ([1]; 5 µM): 31.5%; total apoptotic cells (apoptotic cell population) ([1]; 5 µM): 47.9%; early apoptotic cells (Annexin V^+/PI^-), LR ([1]; 10 µM): 11.5%; late apoptotic cells (Annexin V^+/PI^+), UR ([1]; 10 µM): 81.0%; total apoptotic cells (apoptotic cell population) ([1]; 10 µM): 92.5%; inhibition in S-180 tumor growth ([2]; 19th day, after drug treatment on day 1-7): about 20%; inhibition in S-180 tumor growth ([2]; day 9, after drug treatment on day 1-7): 84%
